Values quoted from earlier work, collected in patent US20170068777A1, “METHODS OF IDENTIFYING AND F[…] COMPOUNDS THAT MODULATE PHENOTYPE-RELATED TARGETS” (Tufts University, priority 2015, published 2017).

Conditions: shown experimentally in the literature

CC1(C(=O)O)CCC2(C)CCC3(C)C(=CCC4C5(C)CCC(O)C(C)(CO)C5CCC43C)C2C1 (centres unmarked) [Azukisapogenol]
effect on TG levels: lower TG levels

CC1(C)[C@@H](O)CC[C@]2(C)[C@H]3C(=O)C=C4[C@@H]5C[C@@](C)(C(=O)O)CC[C@]5(C)CC[C@@]4(C)[C@]3(C)CC[C@@H]12 [Glycyrrhetic acid]
effect on TG levels: lower TG levels
